Values quoted from earlier work in patent US20260199284A1, “SPECIFIC VASH COMPOUNDS (SVC) INHIBITORS FOR HEART DISEASES” (MT ACT, priority 2023, published 2026).

Test system: VASH
Details: cited from earlier work

Q: Which “more potent VASH inhibitor than PTL” value does the source give for CCOC(=O)[C@H]1O[C@@H]1C(=O)N[C@@H](Cc1ccc(O)cc1)C(=O)O [Epo-Y, epoxide-Y] here?
A: > 10 fold
